# According to US20230365563A1, “QUINAZOLINE COMPOUND AND APPLICATION THEREOF” (SHANGHAI PHARMACEUTICALS HOLDING CO., LTD., priority 2020, published 2023):
# Where a name gives a salt, the structure may show the parent alone.
# Key:
# [1] = molecular target: T1, KRAS-G12D and SOS1 (Homo sapiens, UniProt P01116, G12D); test: Inhibition of KRAS-G12D/SOS1 binding (Cisbio binding kit, 665/615 ratio), Effect Embodiment A; conditions: read-out: GTP-KRAS-G12D:SOS1 IC50
# T1 construct: purchased
# In short: (§1)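 Compounds underwent 3-fold dilution from their storage solutions (11 points), were transferred to assay wells in duplicate with DMSO held at 1% final, and were briefly centrifuged.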
# [2] = molecular target: T2, KRAS_G12D and cRAF (Homo sapiens, UniProt P01116, G12D); test: Inhibition of KRAS_G12D/cRAF binding (Cisbio binding kit, 665/615 ratio), Effect Embodiment B; conditions: read-out: GTP-KRAS-G12D:CRAF IC50
# T2 construct: purchased
# In short: as §1
# [3] = molecular target: T3, KRAS_WT and SOS1 (Homo sapiens, UniProt P01116); test: Inhibition of KRAS_WT/SOS1 binding (Cisbio binding kit, 665/615 ratio), Effect Embodiment C; conditions: read-out: GTP-KRAS-WT:SOS1 IC50
# T3 construct: purchased
# In short: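 Compounds tested as 3-fold, 11-point dilutions in duplicate at 1% DMSO final against the KRAS_WT/SOS1 binding system. IC50 derived by nonlinear regression fit.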
# T3 sequence (P01116 1-188 isoform P01116-2): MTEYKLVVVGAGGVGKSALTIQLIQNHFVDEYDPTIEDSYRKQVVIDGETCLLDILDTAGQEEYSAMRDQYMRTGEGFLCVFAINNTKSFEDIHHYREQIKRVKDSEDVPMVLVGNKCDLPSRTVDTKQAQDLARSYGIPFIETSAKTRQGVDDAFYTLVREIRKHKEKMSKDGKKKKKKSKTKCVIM
# T2 sequence (P01116 1-188 isoform P01116-2 G12D): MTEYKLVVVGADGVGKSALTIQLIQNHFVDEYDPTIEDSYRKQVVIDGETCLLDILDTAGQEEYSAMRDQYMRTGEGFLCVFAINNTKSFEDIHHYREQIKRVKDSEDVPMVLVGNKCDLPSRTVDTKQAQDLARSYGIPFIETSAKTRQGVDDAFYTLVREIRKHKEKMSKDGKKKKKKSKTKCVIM
# T1 sequence (P01116 1-188 isoform P01116-2 G12D): as above
SMILES,IC50 [1],IC50 [2],IC50 [3]
"CC1OCCN(CCCOc2nc(N3CC4CCC(C3)N4)c3cc(Cl)c(-c4cc(O)cc5ccccc45)c(F)c3n2)C1C (single isomer, unassigned) [Compound 265d, 4-((R or S)-4-((1R,5S)-3,8-diazabicyclo[3.2.1]octan-3-yl)-6-chloro-2-(3-(2R or 2S, 3R or 3S)-2,3-dimethylmorpholinyl)propoxy)-8-fluoroquinazolin-7-yl)naphthalen-2-ol diformate]",50 nM,184 nM,4900 nM
"CO[C@@H](COc1nc(N2CC3CCC(C2)N3)c2cc(Cl)c(-c3cc(O)cc4ccccc34)c(F)c2n1)CN1CCCC[C@H]1C (single isomer, unassigned) [Compound 266, (R or S)-4-(4-((1R,5S)-3,8-diazacyclo[3.2.1]octan-3-yl)-6-chloro-8-fluoro-2-((R)-2-methoxy-3-((R)-2-methylpiperidin-1-yl)propoxy)quinazolin-7-yl)naphthalen-2-ol diformate]",174 nM,746 nM,> 10000 nM
"Oc1cc(-c2c(Cl)cc3c(N4CC5CCC(C4)N5)nc(OCCN4CCCC(F)C4)nc3c2F)c2ccccc2c1 (single isomer, unassigned) [Compound 267a, 4-((R or S)-4-((1R,5S)-3,8-diazacyclo[3.2.1]octan-3-yl)-6-chloro-8-fluoro-2-(2-((S or R)-3-fluoropiperidin-1-yl)ethoxy)quinazolin-7-yl)naphthalen-2-ol formate]",76.7 nM,259 nM,6340 nM
"Oc1cc(-c2c(Cl)cc3c(N4CC5CCC(C4)N5)nc(OCCN4CCCC(F)C4)nc3c2F)c2ccccc2c1 (single isomer, unassigned) [Compound 267b, 4-((R or S)-4-((1R,5S)-3,8-diazacyclo[3.2.1]octan-3-yl)-6-chloro-8-fluoro-2-(2-((R or S)-3-fluoropiperidin-1-yl)ethoxy)quinazolin-7-yl)naphthalen-2-ol formate]",118 nM,278 nM,4600 nM
"C[C@H]1CCCCN1CCOc1nc(N2CC3CCC(C2)N3)c2cc(Cl)c(-c3cc(O)cc4ccccc34)c(F)c2n1 (single isomer, unassigned) [Compound 268, (R or S)-4-(4-((1R,5S)-3,8-diazacyclo[3.2.1]octan-3-yl)-6-chloro-8-fluoro-2-(2-((S)-2-methylpiperidin-1-yl)ethoxy)quinazolin-7-yl)naphthalen-2-ol diformate]",52.4 nM,346 nM,3610 nM
"C[C@@H]1CCCCN1CCOc1nc(N2CC3CCC(C2)N3)c2cc(Cl)c(-c3cc(O)cc4ccccc34)c(F)c2n1 (single isomer, unassigned) [Compound 269, (S or R)-4-(4-((1R,5S)-3,8-diazacyclo[3.2.1]octan-3-yl)-6-chloro-8-fluoro-2-(2-((R)-2-methylpiperidin-1-yl)ethoxy)quinazolin-7-yl)naphthalen-2-ol formate]",67.9 nM,339 nM,1760 nM
"Oc1cc(-c2c(Cl)cc3c(N4CC5CCC(C4)N5)nc(OCCCN4CCC5(CCOC5)C4)nc3c2F)c2ccccc2c1 (single isomer, unassigned) [Compound 270, (4R or 4S)-4-(2-(3-(2-oxo-7-azaspiro[4.4]nonan-7-yl)propoxy)-4-(1R,5S)-3,8-diazacyclo[3.2.1]octan-3-yl)-6-chloro-8-fluoroquinazolin-7-yl)naphthalen-2-ol diformate]",43.1 nM,202 nM,1210 nM
"CCc1cccc2cc(O)cc(-c3c(F)cc4c(N5CC6CCC(C5)N6)nc(OCCCN5C6CCC5COC6)nc4c3F)c12 (single isomer, unassigned) [Compound 271a, 4-((7S or 7R)-2-(3-(3-oxa-8-azabicyclo[3.2.1]octan-8-yl)propoxy)-4-((1R,5S)-3,8-diazabicyclo[3.2.1]octan-3-yl)-6,8-difluoroquinazolin-7-yl)-5-ethylnaphthalen-2-ol diformate]",9.86 nM,11.4 nM,179 nM
"C#Cc1c(F)ccc2cccc(-c3c(F)cc4c(N5CC6CCC(C5)N6)nc(OCCCN5C6CCC5COC6)nc4c3F)c12 (single isomer, unassigned) [Compound 272b, 8-(3-((R or S)-4-((1R,5S)-3,8-diazabicyclo[3.2.1]octan-3-yl)-7-(8-ethynyl-7-fluoronaphtthalen-1-yl)-6,8-difluoroquinazolin-2-yl)oxy)propyl)-3-oxa-8-azabicyclo[3.2.1]octane formate]",18 nM,76.8 nM,4260 nM
"C#Cc1cccc2cc(O)cc(-c3c(F)cc4c(N5CC6CCC(C5)N6)nc(OCCCN5C6CCC5COC6)nc4c3F)c12 (single isomer, unassigned) [Compound 273a, 4-((7S or 7R)-2-(3-(3-oxa-8-azabicyclo[3.2.1]octan-8-yl)propoxy)-4-((1R,5S)-3,8-diazabicyclo[3.2.1]octan-3-yl)-6,8-difluoroquinazolin-7-yl)-5-ethynylnaphthalen-2-ol diformate]",11.3 nM,7.91 nM,69.8 nM
"N#Cc1cccc2cc(O)cc(-c3c(F)cc4c(N5CC6CCC(C5)N6)nc(OCCCN5C6CCC5COC6)nc4c3F)c12 (single isomer, unassigned) [Compound 278a, 8-((7S or 7R)-2-(3-(3-oxa-8-azabicyclo[3.2.1]octan-8-yl)propoxy)-4-((1R,5S)-3,8-diazabicyclo[3.2.1]octan-3-yl)-6,8-difluoroquinazolin-7-yl)-6-hydroxy-1-naphthonitrile diformate]",17.6 nM,38.6 nM,122 nM
"C#Cc1c(F)ccc2cccc(-c3c(F)cc4c(N5CC6CCC(C5)N6)nc(OC[C@@]56CCCN5C[C@H](F)C6)nc4c3F)c12 (single isomer, unassigned) [Compound 279a, (S or R)-4-((1R,5S)-3,8-diazacyclo[3.2.1]octyl-3-yl)-7-(8-ethynyl-7-fluoronaphthalen-1-yl)-6,8-difluoro-2-((2R,7aS)-2-fluorotetrahydro-1H-pyrrolidin-7a(5H)-yl)methoxy)quinazoline formate]",8.77 nM,10.9 nM,27.3 nM
"CCc1c(F)ccc2cccc(-c3c(F)cc4c(N5CC6CCC(C5)N6)nc(OC[C@@]56CCCN5C[C@H](F)C6)nc4c3F)c12 (single isomer, unassigned) [Compound 280a, 4-((1R,5S)-3,8-diazacyclo[3.2.1]octan-3-yl)-7-((S or R)-8-ethyl-7-fluoronaphthalen-1-yl)-6,8-difluoro-2-((2R,7aS)-2-fluorotetrahydro-1H-pyrrolidin-7a(5H)-yl)methoxy)quinazoline dihydrochloride]",17.1 nM,14.1 nM,234 nM
"CCc1cccc2cccc(-c3c(F)cc4c(N5CC6CCC(C5)N6)nc(OC[C@@]56CCCN5C[C@H](F)C6)nc4c3F)c12 (single isomer, unassigned) [Compound 281a, (S or R)-4-((1R,5S)-3,8-diazacyclo[3.2.1]octan-3-yl)-7-(8-ethylnaphthalen-1-yl)-6,8-difluoro-2-((2R,7aS)-2-fluorotetrahydro-1H-pyrrolin-7a(5H)-yl)methoxy)quinazoline dihydrochloride]",17.8 nM,20.3 nM,564 nM
"CCc1cccc2cc(O)cc(-c3c(F)cc4c(N5CC6CCC(C5)N6)nc(OCCCN5CCOC[C@H]5C)nc4c3F)c12 (single isomer, unassigned) [Compound 282a, (S or R)-4-(4-((1R,5S)-3,8-diazacyclo[3.2.1]octan-3-yl)-6,8-difluoro-2-(3-((R)-3-methylmorpholinyl)propoxy)quinazolin-7-yl)-5-ethylnaphthalen-2-ol dihydrochloride]",16.5 nM,13.6 nM,175 nM
"CCc1cccc2cc(O)cc(-c3c(F)cc4c(N5CC6CCC(C5)N6)nc(OCCCN5C[C@@H](C)O[C@@H](C)C5)nc4c3F)c12 (single isomer, unassigned) [Compound 283a, (S or R)-4-(4-((1R,5S)-3,8-diazacyclo[3.2.1]octan-3-yl)-2-(3-((2S,6R)-2,6-dimethylmorpholinylpropoxy)-6,8-difluoroquinazolin-7-yl)-5-ethylnaphthalen-2-oldihydrochloride]",15.8 nM,19.2 nM,761 nM
"CCc1cccc2cc(O)cc(-c3c(F)cc4c(N5CC6CCC(C5)N6)nc(OC[C@H](C)CN5C6CCC5COC6)nc4c3F)c12 (single isomer, unassigned) [Compound 284a, (4S or 4R)-4-(2-((2R)-3-(3-oxa-8-azabicyclo[3.2.1]octan-8-yl)-2-methylpropoxy)-4-((1R,5S)-3,8-diazabicyclo[3.2.1]octan-3-yl)-6,8-difluoroquinazolin-7-yl)-5-ethylnaphthalen-2-ol dihydrochloride]",17.3 nM,11 nM,251 nM
"CCc1cccc2cc(O)cc(-c3c(F)cc4c(N5CC6CCC(C5)N6)nc(OC[C@@]56CCCN5C[C@H](F)C6)nc4c3F)c12 (single isomer, unassigned) [Compound 285a, (S or R)-4-(4-((1R,5S)-3,8-diazacyclo[3.2.1]octan-3-yl)-6,8-difluoro-2-((2R,7aS)-2-fluorotetrahydro-1H-pyrrolidin-7a(5H-yl)methoxy)quinazolin-7-yl)-5-ethylnaphthalen-2-ol dihydrochloride]",16.6 nM,9.12 nM,18.4 nM
